In patent publication US8653298B2, “Biphenyl acetate, preparation and uses thereof” (Shijiazhuang Yiling Pharmaceutical Co., Ltd., priority 2006, dated 2014):
Entries after “also recorded” stand apart in the source; their conditions may differ. Where a name gives a salt, the structure may show the parent alone.

Key:
solubility testing = format: physicochemical; conditions: for Conclusion (solubility): 25±2° C.
Method: According to Chinese medicine book in 2005 edition, the preparation of biphenyl acetic ammonia butantriol salt is made by different solvent. […] At first, mill the biphenyl acetic ammonia butantriol salt into flour and weight it, and add solvent into the biphenyl acetic ammonia butantriol salt. Second, at 25±2° C., wave the mixer solution every 5 minutes for 30 seconds, and inspect the dissolve situation. Repeat three times and the result is illustrated in Table 1.

female Kunming mouse = experiment: analgesia, mice heating plate method; format: in vivo; conditions: for pain record on hot plate (55±0.5° C.): 240 mg/kg
Method: Pick the female Kunming mouse, each having the weight between 20 to 22 grams. At first, test their sensitive towards pain. Put the mouse on the hot plate with the temperature of 55±0.5° C., and calculate how much pain does the mouse has by determining how many times they lick their back leg. Eliminate the mice seem to like to jump and the mice has no respond for 30 seconds. Pick a total of 60 mice having sensitive to pain and divide them into 5 groups randomly. […] The dosage of biphenyl acetic ammonia butantriol salt is divided into low, medium, and high dosage, correspondingly to 4, 12, 36 mg/kg, and normal dosage ⅓, 1, 3 respectively. And there is a positive contrast group. […] On the other hand, the saline is injected into the vein in the contrast group. Use epilation to remove the hair of the back leg of the mouse. Record the painful of every mouse before giving drug, and record the painful after giving drug 1 hour. After the mouse licks its foot, remove the hot plate immediately. Do the same record again at the second and third hour after giving drug. Do the t inspect, and judge its effects on easing pain.

[1] = test system: 2% red blood cell's suspending liquid; experiment: hemolytic testing outside the body (visual); format: cell-based, rabbit; conditions: low concentration 0.63 mg/ml
Method: Take 0.5 ml the biphenyl acetic ammonia butantriol salt solution and dilute it with 0.9 % NaCl solution (0.9 g/100 ml) to 6.25 ml.
Take 2 ml the biphenyl acetic ammonia butantriol salt solution and dilute it with 0.9 % NACL (0.9 g/100 ml) solution to 6.0 ml.
Take few milliliters of rabbit blood into a triangular flask and shake it for 10 minutes. Remove the fiber egg white, and get non-fiber blood. Separate the blood solution into few centrifuge tubes. Add ten times of 0.9% NaCl solution, well mixing, and centrifuge (1500 turns/minutes, 15 minutes) to remove the supernatant. Use 0.9% NaCl solution to wash the precipitation red blood two or three times until the supernatant is not red anymore. Use the red blood to mix the 0.9% NaCl solution to make 2% suspending liquid for test use.
Take the same size of opening of 7 clean test tubes and number them. Add the 0.9% NaCl solution, the injection water, medicine, and the 2% suspending liquid followed by Table 9. After well mixing, put them in the temperature chamber at 37° C. Inspect them every 15 minutes. After 1 hour, inspect them every one hour for 3 hours.
If testing solution presents clearly red, no cellular residual under the tube, and few cellular residual, it can determines that haemolysis happens. If red cells all sink, and supernatant fluid presents no color, it can present that haemolysis doesn't happen. […]

in vivo = conditions: both, NIH, mouse, in vivo
Excerpt: (§1) A total amount of 40 NIH mice, 19-21 gram, (half of the mice are male and half of the mice are female), it is divided into two groups: medicine group and the contrast group. […] The contrast is given by the […] liquid. Investigation and record the poison effect on the mice and the amount of mice death.

NIH mice [2] = experiment: in vivo
Excerpt: as §1

[3] = stable test of the injection (influence, acceleration, long term); format: physicochemical
Excerpt: The purpose is to investigate the regular change of this product which has the influence of temperature, humidity, and light intensity, and offer producing, packaging, and transporting condition for this medicine. At the same time, the effective date is established by passing this testing. According to the Chinese pharmacopia appendix XI X C, second edition, 2005(the rule of medicine stability testing direction) and “The important stability item-list of bulk drug and pharmaceutical preparation” which is in “The researching directive rule of chemical medicine and therapeutic biological products” determines the important item-list, which includes gender character, PH value, relative materials, asepsis, thermal source, assay, and so on. The testing result is below: […] In other words, the quality of the product is very stable. […] In other words, the quality of the product is very stable. […] In other words, the quality of the product is very stable.

NIH mice [4] = experiment: twist reaction caused by glacial acetic acid; conditions: 3-48 mg/kg
Method: After testing, the 110 NIH mice are divided into eleven groups randomly, which means each group has 10 mice, and each of the mice has a weight between 15 and 17 grams. The numbers and dosage of the biphenyl acetic ammonia butantriol slat are 1, 2, 3, 4, 5 and 3, 6, 12, 24, 48 mg/kg respectively. The numbers and dosage of flurbiprofen axetil are 1, 2, 3, 4, 5, and 3, 6, 12, 24, 48 respectively also. The medicine and weight ratio is 0.1 ml medicine/10 g weight. Meanwhile, we give the same quantity of saline solution to the contrast group. After 30 minutes, the mixture solution is injected into the vein according to its weight ratio 0.1 ml liquid/10 gram weight for HAc painful.

Kunming mouse = experiment: swelling of the mouse ear caused by dimethyl benzene; conditions: 3-48 mg/kg
Excerpt: Total numbers of 110 Kunming mice are used, male, 15-17 g, medical inspection for 3 days.
After testing, the mice are divided into eleven groups randomly and each group contains 10 mice. The numbers and dosage of the biphenyl acetic ammonia butantriol slat are 1, 2, 3, 4, 5 and 3, 6, 12, 24, 48, respectively. The numbers and dosage of flurbiprofen axetil are 1, 2, 3, 4, 5, and 3, 6, 12, 24, 48 respectively. Use the dimethybenzene to make the mouse ear swelling, and use the mouse left ear as the contrast group. After 30 minutes, the mixing liquid is injected into the vein according to its weight ratio 0.1 ml liquid/10 gram weight. Use a punch, having the diameter of 8 mm, to punch the same hole in two different ears. Weight it by very high quality scale. Finally, the swelling ratio is: the weight of right ear plus the weight of left ear.

NIH mice [5] = experiment: test of stomach channel, oral administration; conditions: 212 mg/kg oral, fasted 24 hours, stomach dissected after 48 hours
Method: NIH mice are divided into two groups randomly. […] Dissect stomach after 48 hours. Use 10% methylene oxide. Cut the stomach along the curve of stomach, and calculate the percentage of an ulcer canker.

[6] = solvent Acetone, 8.9 g in 150 ml
[7] = solvent Acetonitrile, 9.1 g in 150 ml
[8] = solvent Alcohol, 14.3 g in 10 ml
[9] = solvent Formamide, 0.2137 g in 6 ml
[10] = solvent Methanol, 0.1135 g in 3 ml
[11] = both, NIH, mouse, in vivo, 14 days

O=C(O)Cc1ccc(-c2ccccc2)cc1 [biphenyl acetic ammonia butantriol salt]
The dissolving condition (solubility testing; [6]): Completely | Conclusion (solubility) (solubility testing; [6]): Undissolvable | The dissolving condition (solubility testing; [7]): Completely | Conclusion (solubility) (solubility testing; [7]): Undissolvable | The dissolving condition (solubility testing; [8]): Completely | Conclusion (solubility) (solubility testing; [8]): just a few dissolve; also recorded: Slightly | The dissolving condition (solubility testing; [9]): Completely | Conclusion (solubility) (solubility testing; [9]): Dissolved | The dissolving condition (solubility testing; [10]): Completely | Conclusion (solubility) (solubility testing; [10]): Dissolved | The dissolving condition (solubility testing; solvent Water, 14.1 g in 10 ml): Completely | Conclusion (solubility) (solubility testing; solvent Water, 14.1 g in 10 ml): just a few dissolve; also recorded: Slightly | time which mouse is standing on the hot plate compared to the contrast group (female Kunming mouse; first, second and third hour after giving drugs): significantly extends | blood absorbing reaction within 3 hours [1]: no blood absorbing reaction | LD50 at 14 days (in vivo; LD50): > 940 mg/kg | LD50 at 14 days (in vivo; LD50 of the salt stated as biphenyl phenylacetic acid): 589 mg/kg | mouse death (NIH mice [2]; 940 mg/kg total for one day, 14 days after injection): no mouse went death | maximum enduring quantity (NIH mice [2]; [11]): over 940 mg/kg | tolerance value (NIH mice [2]; [11]): 940 mg/kg | poison effect on the mice after injection (NIH mice [2]; mouse, in vivo): barely to move | long term test: change of the product ([3]; 25° C., relative humidity 25%, 3 months): no significantly change | acceleration test: change of the product ([3]; 40±2° C., relative humidity 75±5%, 3 months): no significantly change | influence test: change of the product ([3]; 60° C., relative humidity 92.5±5%, light intensity 4500±500 lx, 10 days): no significantly change | effect towards the mouse twisted caused by glacial acetic acid compared with flurbiprofen axetil injection (NIH mice [4]): no significantly difference | effect towards the swelling ear caused by dimethybenzene compared with flurbiprofen axetil (Kunming mouse): no significantly difference

CC(=O)Oc1ccccc1C(=O)O [Lysine Acetyl-salicylate]
pain record on hot plate (55±0.5° C.) (female Kunming mouse; 1 hour): 31.08 ± 4.26 | pain record on hot plate (55±0.5° C.) (female Kunming mouse; 2 hours): 30.35 ± 3.29 | pain record on hot plate (55±0.5° C.) (female Kunming mouse; 3 hours): 28.16 ± 2.97

CC(=O)O.c1ccc(-c2ccccc2)cc1 [Biphenyl acetate]
Number of ulcer animals/Sum of total animals (NIH mice [5]): 13/15
